From patent US20140135310A1, “SULPHONAMIDE DERIVATIVES OF ALICYCLIC AMINES FOR THE TREATMENT OF CENTRAL NERVOUS SYSTEM DISEASES” (Adamed Sp. z o.o., priority 2011, published 2014)
Read-outs that look alike come from different tables or passages of the source.

What was measured:
[1] = molecular target: D3 dopaminergic receptors (Homo sapiens, UniProt P35462); test: Cellular functional assay, D3 dopaminergic receptors; type: cell-based; conditions: D3 (h), CHO cells; for D3 ag [%]: agonism, percent of control specific agonist response (0.3 μM dopamine for control); for D3 antag [%]: antagonism, stimulus dopamine (10 nM)
Chain of D3 dopaminergic receptors (P35462 whole entry): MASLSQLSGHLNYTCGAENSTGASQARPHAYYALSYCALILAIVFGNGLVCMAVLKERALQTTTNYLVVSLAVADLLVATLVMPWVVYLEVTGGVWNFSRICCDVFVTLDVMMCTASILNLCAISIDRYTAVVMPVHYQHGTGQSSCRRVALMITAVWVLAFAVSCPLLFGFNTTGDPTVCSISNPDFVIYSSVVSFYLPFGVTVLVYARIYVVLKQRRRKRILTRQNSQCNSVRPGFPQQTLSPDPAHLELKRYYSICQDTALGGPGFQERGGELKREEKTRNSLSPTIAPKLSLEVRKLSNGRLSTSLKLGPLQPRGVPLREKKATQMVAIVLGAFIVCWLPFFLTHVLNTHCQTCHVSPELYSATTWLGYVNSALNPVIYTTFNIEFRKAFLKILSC
Method in brief: (§1)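 Responses expressed as percent of control specific agonist response; EC50 or IC50 from Hill-equation nonlinear fits of mean replicate concentration-response curves. For antagonists, Kb derived by modified Cheng-Prusoff using reference agonist concentration and its EC50.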

[2] = molecular target: T1, 5-HT1A serotoninergic receptors (Homo sapiens, UniProt P08908); test: Cellular functional assay, 5-HT1A serotoninergic receptors; type: cell-based; conditions: agonist mode; percent of control specific agonist response
T1 sequence (P08908 1-422): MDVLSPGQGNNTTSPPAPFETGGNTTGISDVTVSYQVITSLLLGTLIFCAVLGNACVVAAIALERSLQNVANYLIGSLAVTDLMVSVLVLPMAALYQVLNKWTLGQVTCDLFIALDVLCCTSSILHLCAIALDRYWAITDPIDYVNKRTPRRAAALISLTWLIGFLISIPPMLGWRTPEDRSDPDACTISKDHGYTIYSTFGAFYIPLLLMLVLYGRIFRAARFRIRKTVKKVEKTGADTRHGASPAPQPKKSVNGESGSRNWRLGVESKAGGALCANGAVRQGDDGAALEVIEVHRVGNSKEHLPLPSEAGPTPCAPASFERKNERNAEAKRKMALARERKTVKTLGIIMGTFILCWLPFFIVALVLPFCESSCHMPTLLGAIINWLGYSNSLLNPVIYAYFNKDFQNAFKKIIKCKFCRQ
Procedure: (§2) The results are expressed as a percent of control specific agonist response ((measured specific response/control specific agonist response)×100) obtained in the presence of the test compounds.
(§3) The EC50 values (concentration producing a half-maximal specific response) and IC50 values (concentration causing a half-maximal inhibition of the control specific agonist response) were determined by non-linear regression analysis of the concentration-response curves generated with mean replicate values using Hill equation curve fitting (Y=D+[(A−D)/(1+(C/C50)nH)], where Y=specific response, D=minimum specific response, A=maximum specific response, C=compound concentration, and C50=EC50 or IC50, and nH=slope factor). This analysis was performed using a software developed at Cerep (Hill software) and validated by comparison with data generated by the commercial software SigmaPlot® 4.0 for Windows® (© 1997 by SPSS Inc.).
(§4) For the antagonists, the apparent dissociation constants (Kb) were calculated using the modified Cheng Prusoff equation (Kb=IC50/(1+(A/EC50A)), where A=concentration of reference agonist in the assay, and EC50A=EC50 value of the reference agonist).

[3] = molecular target: 5-HT6 serotoninergic receptors (Homo sapiens, UniProt P50406); test: Cellular functional assay, 5-HT6 serotoninergic receptors; type: cell-based; conditions: agonist mode; percent of control specific agonist response
Chain of 5-HT6 serotoninergic receptors (P50406 whole entry): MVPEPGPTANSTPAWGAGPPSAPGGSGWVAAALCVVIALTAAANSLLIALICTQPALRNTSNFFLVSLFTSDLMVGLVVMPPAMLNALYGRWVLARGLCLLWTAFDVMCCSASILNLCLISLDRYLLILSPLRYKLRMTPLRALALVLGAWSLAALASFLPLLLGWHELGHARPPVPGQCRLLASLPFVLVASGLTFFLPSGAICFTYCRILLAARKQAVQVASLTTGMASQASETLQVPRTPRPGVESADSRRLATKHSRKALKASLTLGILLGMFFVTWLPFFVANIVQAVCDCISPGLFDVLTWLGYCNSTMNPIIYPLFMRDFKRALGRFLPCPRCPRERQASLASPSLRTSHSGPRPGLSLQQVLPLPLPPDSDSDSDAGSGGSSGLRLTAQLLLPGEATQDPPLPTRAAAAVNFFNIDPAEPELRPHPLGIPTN
Method in brief: as §1

[4] = molecular target: T2, 5-HT2C serotoninergic receptors (Homo sapiens, UniProt P28335); test: Cellular functional assay, 5-HT2C serotoninergic receptors; type: cell-based
T2 sequence (P28335 33-458): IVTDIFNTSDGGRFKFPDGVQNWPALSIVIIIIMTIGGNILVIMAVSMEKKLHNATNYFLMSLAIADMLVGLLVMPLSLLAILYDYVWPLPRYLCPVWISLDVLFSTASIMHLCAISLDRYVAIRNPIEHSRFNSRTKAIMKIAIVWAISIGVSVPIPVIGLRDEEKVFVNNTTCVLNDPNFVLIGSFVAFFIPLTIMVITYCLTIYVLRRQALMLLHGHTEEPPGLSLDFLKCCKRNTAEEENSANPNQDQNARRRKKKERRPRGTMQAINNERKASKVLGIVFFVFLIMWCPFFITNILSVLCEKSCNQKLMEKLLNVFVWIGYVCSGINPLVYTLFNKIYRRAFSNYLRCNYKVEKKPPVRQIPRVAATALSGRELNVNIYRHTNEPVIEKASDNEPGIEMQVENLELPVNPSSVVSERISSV
Procedure: as §2, §3, §4

[5] = molecular target: T3, 5-HT reuptake (rat brain synaptosomes) (Rattus norvegicus, UniProt P31652); test: 5-HT reuptake, [3H]5-HT incorporation into rat brain synaptosomes; type: biochemical; conditions: 15 min/37° C., read-out: SERT IC50
T3 construct: measuring [^3H]5-HT incorporation into rat brain synaptosomes; from tissue; host or cells: rat brain synaptosomes
T3 sequence (P31652 whole entry): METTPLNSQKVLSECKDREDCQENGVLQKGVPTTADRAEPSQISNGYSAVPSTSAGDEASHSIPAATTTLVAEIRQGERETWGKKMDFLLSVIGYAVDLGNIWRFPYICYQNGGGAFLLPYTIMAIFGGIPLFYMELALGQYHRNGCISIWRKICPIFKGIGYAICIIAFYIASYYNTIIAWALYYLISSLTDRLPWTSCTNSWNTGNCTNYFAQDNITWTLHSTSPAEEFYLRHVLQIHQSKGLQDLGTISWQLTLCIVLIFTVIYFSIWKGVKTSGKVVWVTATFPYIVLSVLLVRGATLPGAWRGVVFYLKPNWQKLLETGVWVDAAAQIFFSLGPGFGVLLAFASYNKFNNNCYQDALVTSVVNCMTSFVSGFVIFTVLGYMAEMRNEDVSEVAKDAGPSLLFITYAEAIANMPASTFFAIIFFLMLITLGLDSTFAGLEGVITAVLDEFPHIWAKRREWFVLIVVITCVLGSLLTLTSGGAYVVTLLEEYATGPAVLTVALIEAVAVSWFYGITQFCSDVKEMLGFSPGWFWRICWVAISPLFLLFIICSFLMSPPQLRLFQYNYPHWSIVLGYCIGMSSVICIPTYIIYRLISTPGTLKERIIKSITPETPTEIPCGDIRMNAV
Procedure: 5-HT reuptake was tested according to Perovic, S. and Muller, W.E.G. (1995) Arzneim-Forsch. Drug Res., 45: 1145-1148 by measuring [^3H]5-HT incorporation into rat brain synaptosomes. Assay conditions are as follows:
Tracer: [^3H]5-HT (0.2 μCi/ml)
Incubation: 15 min/37° C.

[6] = molecular target: 5-HT2A serotoninergic receptors (Homo sapiens, UniProt P28223); test: Cellular functional assay, 5-HT2A serotoninergic receptors; type: cell-based
Chain of 5-HT2A serotoninergic receptors (P28223 whole entry): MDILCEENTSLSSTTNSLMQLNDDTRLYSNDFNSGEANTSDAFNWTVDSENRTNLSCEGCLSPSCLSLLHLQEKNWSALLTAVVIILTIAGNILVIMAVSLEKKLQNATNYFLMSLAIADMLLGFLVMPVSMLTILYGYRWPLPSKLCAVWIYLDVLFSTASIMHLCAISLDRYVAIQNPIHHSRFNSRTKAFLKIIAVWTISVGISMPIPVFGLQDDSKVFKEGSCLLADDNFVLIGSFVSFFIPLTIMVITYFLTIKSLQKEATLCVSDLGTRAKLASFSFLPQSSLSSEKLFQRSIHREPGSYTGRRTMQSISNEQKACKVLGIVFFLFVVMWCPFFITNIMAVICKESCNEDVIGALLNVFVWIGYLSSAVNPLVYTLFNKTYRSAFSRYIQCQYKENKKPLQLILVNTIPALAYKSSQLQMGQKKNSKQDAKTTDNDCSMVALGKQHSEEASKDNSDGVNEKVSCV
Method in brief: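 Response expressed as percent of control specific agonist response; EC50 or IC50 from Hill-equation non-linear regression on mean replicate values. For antagonists, apparent Kb derived by modified Cheng-Prusoff using reference agonist concentration and its EC50.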

[7] = agonist mode, percent of control specific agonist response

SMILES | D3 ag [%] [1] | D3 antag [%] [1] | 5-HT1A ag [%] [2] | 5-HT6 ag [%] [3] | 5-HT2C ag [%] [4, 7] | 5-HT2C antag [%] ([4]; antagonist mode) | IC50 [5] | 5-HT2A ag [%] [6, 7] | 5-HT2A ag [%] [6]
O=S(=O)(NCC1CN(CCOc2cccc3ccccc23)C1)c1ccc2ccccc2c1 [Compound 122, N-[[1-[2-(1-Naphthyloxy)ethyl]azetidin-3-yl]methyl]naphthalene-2-sulphonamide] | 38% | 56% | 35% | 0% | 78% | −10% | – | – | –
Cc1cccc(S(=O)(=O)NC2CCN(CCCc3c[nH]c4ccc(Cl)cc34)C2)c1 (stereo not drawn) [Compound 86, N-[1-[3-(5-chloro-1H-indol-3-yl)propyl]pyrrolidin-3-yl]-3-methyl-benzenesulphonamide] | – | – | – | – | – | – | 17 nM | – | –
Cc1c(S(=O)(=O)NCC2CN(CCCc3noc4cc(F)ccc34)C2)sc2ccc(Cl)cc12 [Compound 131, 5-Chloro-N-[[1-[3-(6-fluoro-1,2-benzoxazol-3-yl)propyl]azetidin-3-yl]-methyl]-3-methyl-benzothiophene-2-sulphonamide] | −13% | 55% | – | 3% | – | – | – | −2% | –
Cc1c(S(=O)(=O)NCC2CN(CCCc3noc4cc(F)ccc34)C2)sc2ccc(F)cc12 [Compound 130, 5-Fluoro-N-[[1-[3-(6-fluoro-1,2-benzoxazol-3-yl)propyl]azetidin-3-yl]methyl]-3-methyl-benzothiophene-2-sulphonamide] | 5% | 61% | – | 4% | – | – | – | 0% | –
O=S(=O)(NCC1CCN(CCOc2cccc3ccccc23)C1)c1ccc2ccccc2c1 (stereo not drawn) [Compound 124, N-[[1-[2-(1-Naphthyloxy)ethyl]pyrrolidin-3-yl]methyl]naphthalene-2-sulphonamide] | 11% | 43% | 16% | 7% | – | – | – | – | –
O=S(=O)(NCC1CN(CCCc2noc3cc(F)ccc23)C1)c1ccc2ccccc2c1 [Compound 134, N-[[1-[3-(6-Fluoro-1,2-benzoxazol-3-yl)propyl]azetidin-3-yl]methyl]-naphthalene-2-sulphonamide] | – | – | – | 4% | – | – | – | – | −3%
